Experimental data taken from ChEMBL document CHEMBL4024735, “Brefeldin A enhances docetaxel-induced growth inhibition and apoptosis in prostate cancer cells in monolayer and 3D cultures” (Bioorg Med Chem Lett, 2017).
pIC50: −log10 of the molar value. Calls of active or inactive are those of the source. The rule behind the calls is not given here.

Experiments:
[1] = biological target: RAC-alpha serine/threonine-protein kinase (Homo sapiens) (UniProt P31749); assay: Inhibition of Akt phosphorylation in human PC3 cells at 50 nM after 24 hrs by Western blot method relative to control; format: cell-based
Chain of RAC-alpha serine/threonine-protein kinase (Homo sapiens) (P31749 whole entry): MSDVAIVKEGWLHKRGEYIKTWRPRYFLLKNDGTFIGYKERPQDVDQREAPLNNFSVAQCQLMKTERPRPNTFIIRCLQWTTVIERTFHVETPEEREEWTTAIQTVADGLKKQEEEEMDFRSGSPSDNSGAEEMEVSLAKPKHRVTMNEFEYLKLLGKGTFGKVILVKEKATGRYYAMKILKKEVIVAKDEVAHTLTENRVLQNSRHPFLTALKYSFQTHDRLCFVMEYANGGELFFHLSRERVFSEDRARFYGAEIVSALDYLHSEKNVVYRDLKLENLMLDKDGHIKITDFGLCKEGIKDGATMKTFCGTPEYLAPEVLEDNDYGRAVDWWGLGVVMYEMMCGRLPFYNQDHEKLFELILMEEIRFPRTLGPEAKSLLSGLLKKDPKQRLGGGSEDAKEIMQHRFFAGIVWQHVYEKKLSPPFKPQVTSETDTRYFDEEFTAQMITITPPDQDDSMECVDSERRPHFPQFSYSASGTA

[2] = system: PC-3; assay: Induction of apoptosis in human PC3 cells assessed as Bcl2 level at 50 nM after 24 hrs by Western blot method relative to control; format: functional
[3] = system: PC-3; assay: Cytotoxicity against 3D culture of human PC3 cells assessed as size of tissue like structure at 50 nM administered once every alternative day for 10 days measured on post last dose by matrigel based microscopic method relative to control; format: functional
[4] = system: LNCaP; assay: Cytotoxicity against human LNCAP cells assessed as decrease in cell viability after 72 hrs by trypan blue exclusion assay; format: functional, cell-based
[5] = system: PC-3; assay: Cytotoxicity against human PC3 cells assessed as decrease in cell viability after 72 hrs by trypan blue exclusion assay; format: functional, cell-based
[6] = system: LNCaP; assay: Induction of apoptosis in human LNCAP cells assessed as morphological changes by propidium iodide staining based fluorescence microscopy; format: functional, cell-based
[7] = system: PC-3; assay: Induction of apoptosis in human PC3 cells assessed as morphological changes by propidium iodide staining based fluorescence microscopy; format: functional, cell-based
[8] = Drug uptake in CD2F1 mouse plasma at 26.3 mg/kg administered for 1 min via intravenous injection measured 60 mins post dose; format: ADME, organism-based
[9] = system: RWPE-1; assay: Cytotoxicity against human RWPE1 cells at >=100 nM after 72 hrs by tryphan blue exclusion assay; format: cell-based; details: rwpe-1, 72 h
[10] = system: PC-3; assay: Potentiation of 3 nM docetaxel-induced cytotoxicity against human PC3 cells assessed as decrease in cell viability at 50 nM after 72 hrs by trypan blue exclusion assay; format: functional, cell-based
[11] = system: RWPE-1; assay: Potentiation of 2 nM docetaxel-induced cytotoxicity against human RWPE1 cells assessed as decrease in cell viability at 50 nM after 72 hrs by trypan blue exclusion assay; format: cell-based; details: rwpe-1, 72 h, 0.05 µM
[12] = system: PC-3; assay: Induction of apoptosis in human PC3 cells at 50 nM after 72 hrs by propidium iodide staining based fluorescence microscopy (reference value: 1.9 +/- 0.8%); format: functional
[13] = system: PC-3; assay: Potentiation of 2 nM docetaxel-induced apoptosis in human PC3 cells at 50 nM after 72 hrs by propidium iodide staining based fluorescence microscopy (reference value: 1.9 +/- 0.8%); format: functional
[14] = system: PC-3; assay: Cytotoxicity against human PC3 cells assessed as cell viability at 50 nM after 72 hrs by trypan blue exclusion assay relative to control; format: functional; details: PC-3, 72 h, read-out: Activity
[15] = system: PC-3; assay: Potentiation of 2 nM docetaxel-induced cytotoxicity against human PC3 cells assessed as cell viability at 50 nM after 72 hrs by trypan blue exclusion assay relative to control; format: functional
[16] = system: PC-3; assay: Potentiation of 2 nM docetaxel-induced cytotoxicity against 3D culture of human PC3 cells assessed as size of tissue like structure at 50 nM administered once every alternative day for 10 days measured on post last dose by matrigel based microscopic method relative to control; format: functional
[17] = biological target: Mitogen-activated protein kinase 3 (Homo sapiens) (UniProt P27361); assay: Inhibition of Erk1 phosphorylation in human PC3 cells at 50 nM after 24 hrs by Western blot method relative to control; format: cell-based
Chain of Mitogen-activated protein kinase 3 (Homo sapiens) (P27361 whole entry): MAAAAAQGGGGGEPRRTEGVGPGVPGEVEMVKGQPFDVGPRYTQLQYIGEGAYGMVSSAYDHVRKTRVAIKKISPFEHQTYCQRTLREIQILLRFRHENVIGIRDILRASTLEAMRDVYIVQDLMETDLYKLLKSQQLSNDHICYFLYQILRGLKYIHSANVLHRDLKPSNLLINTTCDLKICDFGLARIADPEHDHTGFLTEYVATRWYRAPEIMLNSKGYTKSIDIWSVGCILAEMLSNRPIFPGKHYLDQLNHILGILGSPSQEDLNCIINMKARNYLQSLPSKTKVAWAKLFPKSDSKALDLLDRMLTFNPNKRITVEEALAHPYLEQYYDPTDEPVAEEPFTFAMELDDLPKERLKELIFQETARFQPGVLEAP

[18] = biological target: Mitogen-activated protein kinase 1 (Homo sapiens) (UniProt P28482); assay: Inhibition of Erk2 phosphorylation in human PC3 cells at 50 nM after 24 hrs by Western blot method relative to control; format: cell-based
Chain of Mitogen-activated protein kinase 1 (Homo sapiens) (P28482 whole entry): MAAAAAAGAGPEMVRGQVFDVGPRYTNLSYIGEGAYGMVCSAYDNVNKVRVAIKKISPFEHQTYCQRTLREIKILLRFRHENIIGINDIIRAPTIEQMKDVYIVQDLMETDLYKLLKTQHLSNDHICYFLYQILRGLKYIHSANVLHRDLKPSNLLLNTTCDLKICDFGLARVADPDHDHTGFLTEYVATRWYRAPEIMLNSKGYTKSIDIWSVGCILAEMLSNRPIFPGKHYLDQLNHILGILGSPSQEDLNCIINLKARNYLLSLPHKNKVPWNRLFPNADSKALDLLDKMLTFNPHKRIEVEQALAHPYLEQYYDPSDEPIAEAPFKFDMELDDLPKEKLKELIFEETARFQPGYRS

[19] = biological target: Mitogen-activated protein kinase 1 (Homo sapiens) (UniProt P28482); assay: Potentiation of 2 nM docetaxel-induced inhibition of Erk2 phosphorylation in human PC3 cells at 50 nM after 24 hrs by Western blot method relative to control; format: cell-based
[20] = system: RWPE-1; assay: Potentiation of 3 nM docetaxel-induced cytotoxicity against human RWPE1 cells assessed as decrease in cell viability at 50 nM after 72 hrs by trypan blue exclusion assay; format: cell-based; details: rwpe-1, 72 h, 0.05 µM
[21] = Selectivity ratio for potentiation of 2 nM docetaxel-induced cytotoxicity against human PC3 cells to potentiation of 2 nM docetaxel-induced cytotoxicity against human RWPE1 cells
[22] = system: PC-3; assay: Potentiation of 2 nM docetaxel-induced apoptosis in human PC3 cells assessed as Bcl2 level at 50 nM after 24 hrs by Western blot method relative to control; format: functional
[23] = biological target: RAC-alpha serine/threonine-protein kinase (Homo sapiens) (UniProt P31749); assay: Potentiation of 2 nM docetaxel-induced inhibition of Akt phosphorylation in human PC3 cells at 50 nM after 24 hrs by Western blot method relative to control; format: cell-based
[24] = biological target: Mitogen-activated protein kinase 3 (Homo sapiens) (UniProt P27361); assay: Potentiation of 2 nM docetaxel-induced inhibition of Erk1 phosphorylation in human PC3 cells at 50 nM after 24 hrs by Western blot method relative to control; format: cell-based
[25] = system: PC-3; assay: Cytotoxicity against 3D cultures of human PC3 cells assessed as size of tissue-like structure at 2 nM administered once every alternative day for 10 days measured on post last dose by matrigel based microscopic method relative to control; format: functional
[26] = Drug uptake in patient plasma at 20 mg/m2, iv administered for 1 hr as infusion measured 72 hrs post dose; format: ADME, organism-based; details: human
[27] = system: Plasma; assay: Drug uptake in cancer patient plasma at 35 mg/m2, iv administered once every week via infusion measured on day 8 by HPLC-TMS; format: ADME, organism-based; details: human, in vivo
[28] = system: RWPE-1; assay: Cytotoxicity against human RWPE1 cells at 5 to 10 nM after 72 hrs by trypan blue exclusion assay; format: cell-based; details: rwpe-1, 72 h, 0.01 µM
[29] = system: PC-3; assay: Induction of apoptosis in human PC3 cells at 2 nM after 72 hrs by propidium iodide staining based fluorescence microscopy (reference value: 1.9 +/- 0.8%); format: functional
[30] = system: PC-3; assay: Cytotoxicity against human PC3 cells assessed as cell viability at 2 nM after 72 hrs by trypan blue exclusion assay relative to control; format: functional; details: PC-3, 72 h, read-out: Activity
[31] = system: PC-3; assay: Cytotoxicity against human PC3 cells; format: functional, cell-based
[32] = biological target: RAC-alpha serine/threonine-protein kinase (Homo sapiens) (UniProt P31749); assay: Inhibition of Akt phosphorylation in human PC3 cells at 2 nM after 24 hrs by Western blot method relative to control; format: cell-based
[33] = biological target: Mitogen-activated protein kinase 3 (Homo sapiens) (UniProt P27361); assay: Inhibition of Erk1 phosphorylation in human PC3 cells at 2 nM after 24 hrs by Western blot method relative to control; format: cell-based
[34] = biological target: Mitogen-activated protein kinase 1 (Homo sapiens) (UniProt P28482); assay: Inhibition of Erk2 phosphorylation in human PC3 cells at 2 nM after 24 hrs by Western blot method relative to control; format: cell-based
[35] = system: PC-3; assay: Induction of apoptosis in human PC3 cells assessed as Bcl2 level at 2 nM after 24 hrs by Western blot method relative to control; format: functional

## C[C@H]1CCC/C=C/[C@@H]2C[C@H](O)C[C@H]2[C@H](O)/C=C/C(=O)O1 [BREFELDIN A]
[1]
  fold change (FC): 0.99
[2]
  fold change (FC): 0.99
[3]
  Activity: 79.3%
[4]
  Activity: Dose-dependent effect
[5]
  Activity: Dose-dependent effect
[6]
  Activity: Dose-dependent effect
[7]
  Activity: Dose-dependent effect
[8]
  concentration at 1 h: 700 nM
[9]
  Activity: Toxic
[10]
  Activity: Active
[11]
  Activity: Toxic
[12]
  Activity: 18%
[13]
  Activity: 51.2%
[14]
  viability at 0.05 µM: 83.4%
[15]
  Activity: 48.4%
[16]
  Activity: 38.8%
[17]
  fold change (FC): 0.99
[18]
  fold change (FC): 0.97
[19]
  fold change (FC): 0.96
[20]
  Activity: Toxic
[21]
  Selectivity ratio: 4
[22]
  fold change (FC): 0.32
[23]
  fold change (FC): 0.97
[24]
  fold change (FC): 0.93

## CC(=O)O[C@@]12CO[C@@H]1C[C@H](O)[C@@]1(C)C(=O)[C@H](O)C3=C(C)[C@@H](OC(=O)[C@H](O)[C@@H](NC(=O)OC(C)(C)C)c4ccccc4)C[C@@](O)([C@@H](OC(=O)c4ccccc4)[C@H]21)C3(C)C [DOCETAXEL ANHYDROUS]
[25]
  Activity: 83.1%
[4]
  Activity: Dose-dependent effect
[5]
  Activity: Dose-dependent effect
[5]; PC-3, 72 h
  pIC50: 8.10
[26]
  concentration at 72 h: 2.8 nM
[27]
  concentration: 1.79 nM
[6]
  Activity: Dose-dependent effect
[7]
  Activity: Dose-dependent effect
[28]
  Activity: Toxic
[10]
  Activity: Active
[11]
  Activity: Toxic
[29]
  Activity: 14.5%
[30]
  viability at 0.002 µM: 86.7%
[31]
  pIC50: 7.62 to 8.30
[32]
  fold change (FC): 1.01
[33]
  fold change (FC): 0.95
[34]
  fold change (FC): 0.96
[35]
  fold change (FC): 0.71
